Measurements: US8513297B2, “Biaromatic compounds that modulate PPARy type receptors and cosmetic/pharmaceutical compositions comprised thereof” (Galderma Research & Development, priority 2004, dated 2013)
Where a name gives a salt, the structure may show the parent alone.

Legend:
Assay type in all cases: cell-based
[1] = target: T1, PPARγ (Homo sapiens, UniProt P37231); assay: Crossover-curve PPAR transactivation test, PPARγ; conditions: HeLN cells stably transfected with Gal-hPPARγ and luciferase reporter; Schild regression against reference agonist; n.a. means not active; read-out: PPARγ Kd app
T1 construct: Either way it is a handle and not a second protein
T1 sequence (P37231 238-505 limits assumed): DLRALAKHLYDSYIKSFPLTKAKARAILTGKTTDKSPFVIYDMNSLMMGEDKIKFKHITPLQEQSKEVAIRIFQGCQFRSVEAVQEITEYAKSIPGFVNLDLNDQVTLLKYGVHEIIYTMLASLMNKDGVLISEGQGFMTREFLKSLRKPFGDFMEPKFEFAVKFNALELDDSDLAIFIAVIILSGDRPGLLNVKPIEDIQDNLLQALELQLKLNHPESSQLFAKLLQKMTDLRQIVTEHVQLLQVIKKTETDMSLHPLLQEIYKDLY
Procedure: (§1) The activation of PPAR receptors with an agonist (activator) in HeLN cells leads to the expression of a reporter gene, luciferase, which, in the presence of a substrate, generates light. The modulation of the PPAR receptors is measured by quantifying the luminescence produced after incubating the cells in the presence of a reference agonist. The ligands displace the agonist from its site. The measurement of the activity is performed by quantifying the light produced. This measurement makes it possible to determine the modulatory activity of the compounds according to the invention by determining the constant that is the affinity of the molecule for the PPAR receptor. Since this value can fluctuate depending on the basal activity and the expression of the receptor, it is referred to as Kd apparent (KdApp in nM).
(§2) To determine this constant, “crossover curves” of the test product against a reference agonist are performed in a 96-well plate: 10 concentrations of the test product plus a concentration 0 are arranged in a line, and 7 concentrations of the agonist plus a concentration 0 are arranged in a column. This is 88 measurement points for 1 product and 1 receptor. The remaining 8 wells are used for repeatability controls.
(§3) Measurements are also taken for total agonist controls with the same products.
(§4) The HeLN cell lines used are stable transfectants containing the plasmids ERE-βGlob-Luc-SV-Neo (reporter gene) and PPAR (α, δ, γ) Gal-hPPAR. These cells are inoculated into 96-well plates at a rate of 10 000 cells per well in 100 μl of DMEM medium without phenol red and supplemented with 10% of defatted calf serum. The plates are then incubated at 37° C. and 7% CO2 for 16 hours.
(§5) The various dilutions of the test products and of the reference ligand are added at a rate of 5 μl per well. The plates are then incubated for 18 hours at 37° C. and 7% CO2. The culture medium is removed by turning over and 100 μl of a 1:1 PBS/luciferine mixture are added to each well. After 5 minutes, the plates are read by the luminescence detector.

[2] = target: T2, PPARα (Homo sapiens, UniProt Q07869); assay: Crossover-curve PPAR transactivation test, PPARα; conditions: HeLN cells stably transfected with Gal-hPPARα and luciferase reporter; Schild regression against reference agonist; n.a. means not active; read-out: PPARα Kd app
T2 construct: Either way it is a handle and not a second protein
T2 sequence (Q07869 200-468 limits assumed): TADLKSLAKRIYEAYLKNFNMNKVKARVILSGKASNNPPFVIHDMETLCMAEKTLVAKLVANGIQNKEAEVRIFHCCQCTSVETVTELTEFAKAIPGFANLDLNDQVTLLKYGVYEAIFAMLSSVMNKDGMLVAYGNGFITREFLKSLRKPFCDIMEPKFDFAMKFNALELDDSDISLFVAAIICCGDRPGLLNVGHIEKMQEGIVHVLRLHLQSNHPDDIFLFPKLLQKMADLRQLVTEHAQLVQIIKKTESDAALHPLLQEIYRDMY
Procedure: as §1, §2, §3, §4, §5

[3] = target: T3, PPARδ (Homo sapiens, UniProt Q03181); assay: Crossover-curve PPAR transactivation test, PPARδ; conditions: HeLN cells stably transfected with Gal-hPPARδ and luciferase reporter; Schild regression against reference agonist; n.a. means not active; read-out: PPARδ Kd app
T3 construct: Either way it is a handle and not a second protein
T3 sequence (Q03181 211-441 limits assumed): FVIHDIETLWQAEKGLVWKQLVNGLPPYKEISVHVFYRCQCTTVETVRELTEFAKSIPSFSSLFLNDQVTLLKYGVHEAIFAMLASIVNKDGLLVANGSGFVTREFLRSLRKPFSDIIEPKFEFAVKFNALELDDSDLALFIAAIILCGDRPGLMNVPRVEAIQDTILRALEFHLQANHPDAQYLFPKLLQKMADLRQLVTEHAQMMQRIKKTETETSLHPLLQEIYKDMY
Procedure: as §1
To determine this constant, “crossover curves” of the test product against a reference agonist are performed in a 96-well plate: 10 concentrations of the test product plus a concentration 0 are arranged in a line, and 7 concentrations of the agonist plus a concentration 0 are arranged in a column. This is 88 measurement points for 1 product and 1 receptor. […]
The various dilutions of the test products and of the reference ligand are added at a rate of 5 μl per well. […] After 5 minutes, the plates are read by the luminescence detector.

SMILES	Kd [1]	Kd [3]	Kd [2]
CCCCCNC(=O)N(C)c1cccc(-c2ccc(CCC(=O)O)cc2OCCCC)n1 [Example 11, 2-[2-butoxy-4-(2-carboxyethyl)phenyl]-6-(1-methyl-3-pentylureido)pyridinium hydrochloride]	120 nM		2000 nM
CCCCOc1cc(CCC(=O)O)ccc1-c1csc(CN(C)C(=O)c2ccc(OC)cc2)c1 [Example 15, 3-[3-butoxy-4-(5-{[(4-methoxybenzoyl)methylamino]methyl}thiophen-3-yl)phenyl]propanoic acid]	30 nM		
CCCCCCCC(=O)N(C)Cc1cc(-c2ccc(CCC(=O)O)cc2OCCCC)cs1 [Example 14, 3-(3-butoxy-4-{5-[(methyloctanoylamino)methyl]thiophen-3-yl}phenyl)propanoic acid]	2 nM		
CCCCCCCNC(=O)N(C)c1cccc(-c2ccc(CCC(=O)O)cc2OCCCC)n1 [Example 12, 2-[2-butoxy-4-(2-carboxyethyl)phenyl]-6-(1-methyl-3-heptylureido)pyridinium hydrochloride]	15 nM		4000 nM
CCCCOc1cc(CCC(=O)O)ccc1-c1csc(CN(C)C(=O)c2cccc(OC)c2)c1 [Example 16, 3-[3-butoxy-4-(5-{[(3-methoxybenzoyl)methylamino]methyl}thiophen-3-yl)phenyl]propanoic acid]	30 nM		

Further lines, with some results ahead:

Kd [1]	Kd [3]	SMILES	Kd [2]
1000 nM		CCCCCCCC(=O)N(C)Cc1cccc(-c2ccc(/C=C/C(=O)O)s2)c1 [Example 1, 3-(5-{3-[(methyloctanoylamino)methyl]phenyl}thiophen-2-yl)acrylic acid]	
120 nM	8000 nM	CCCCCCCNC(=O)N(C)c1cccc(-c2ccc(CCC(=O)O)cc2OCC)n1 [Example 13, 2-[4-(2-carboxyethyl)-2-ethoxyphenyl]-6-(3-heptyl-1-methylureido)pyridinium hydrochloride]	4000 nM
500 nM		CCCCCCCC(=O)N(C)Cc1cccc(-c2ccc(CCC(=O)O)s2)c1 [Example 2, 3-(5-{3-[(methyloctanoylamino)methyl]phenyl}thiophen-2-yl)propanoic acid]	
1000 nM		CCCCCCCNC(=O)N(C)c1ccnc(-c2ccc(CCC(=O)O)cc2)c1 [Example 8, 2-[4-(2-carboxyethyl)phenyl]-4-(3-heptyl-1-methylureido)pyridinium acetate]	
60 nM		CCCCCCCNC(=O)N(C)c1cccc(-c2ccc(CCC(=O)O)cn2)c1 [Example 7, 3-{6-[3-(3-heptyl-1-methylureido)phenyl]pyrid-3-yl}propanoic acid]	
250 nM	4000 nM	CCCCCCCNC(=O)N(C)c1cccc(-c2ccc(CCC(=O)O)cc2)n1 [Example 6, 3-{4-[6-(3-heptyl-1-methylureido)pyrid-2-yl]phenyl}propanoic acid]	
